Reference: article PMC8803906, “Metabolite Identification and Pharmacokinetic Behavior of Diaveridine in the Plasma of Pigs and Chickens Based on Radioactive Tracing Coupled With LC/MS-IT-TOF Assay” (Frontiers in Veterinary Science, 2022)
“Also recorded” adds a separate entry of the source.

Key:
[1] = parameters: method as in PMID 22161732; settings: pig liver microsomes incubated with DVD; cited from earlier work
[2] = Plasma pharmacokinetics of DVD and its metabolites in chickens after a single oral dose of ^3H-DVD (radioactive tracing, LC-v.ARC/MS-IT-TOF); settings: for Concentration in plasma: chickens
From the text: (§1) Four healthy castrated male pigs (Landrace/Doric Cross, 60-d-old, 30 ± 2 kg) were supplied by the China Breeding Pig Testing Center of Huazhong Agricultural University (Wuhan, China). Six healthy Cobb 500 broiler chickens (three female and three male, 40-d-old, 2.5 ± 0.1 kg) were purchased from Wuhan Chia Tai chicken farm (Wuhan, China). All animals were maintained under standard environmental conditions by using normal husbandry practices and were acclimatized for 1 week. The animals were fed a commercial standard diet and water ad libitum, but were fasted overnight before dose administration and up to 4 h after dose administration. All animal care and experimental protocols were conducted in accordance with the Guide for the Care and Use of Laboratory Animals of Hubei Provincial Laboratory Animal Public Service Center (permit number SYXK 2013-0044) and approved by the Ethics Committee of Huazhong Agricultural University.
(§2) Pigs (n = 4) and chickens (n = 6) were weighed individually and given a single dose of 10 mg/kg BW ^3H-DVD with a specific activity of 0.23 Ci/g. The ^3H-DVD solution was prepared by accurately mixing ^3H-DVD and non-labeled DVD at a mass ratio of 1:96 and diluting it with 0.5% methylcellulose to make a homogeneous suspension with a concentration of 25 mg/ml. The suspension was administered by gastric gavage using a soft stomach tube connected to an injection syringe. About 1.5 ml of blood was collected into heparinized tubes from the anterior venae cavae of pig and the wing veins of chicken at different time points. For pigs, blood was collected before administration and 0.17, 0.33, 0.5, 0.67, 1, 1.5, 2, 4, 6, 8, 12, 24, 48, 72, 168, and 336 h after oral treatment. For chickens, blood was collected before administration and 0.25, 0.5, 1, 1.5, 2, 4, 6, 8, 12, 24, 36, 48, 72, 168, and 336 h after oral dosing. Plasma samples were collected after centrifugation at 4°C and 2,254 × g for 10 min and were stored at −20°C until analysis.
(§3) Plasma samples were completely thawed at room temperature. Each sample was divided into two parts, one was used for the assay of total radioactivity, and the other was subjected to a MCX Solid Phase Extraction (SPE) procedure for the qualitative and quantitative analysis of DVD-related metabolites.
(§4) The total radioactivity assay was conducted in accordance with a previous study with a few modifications ([20]). Briefly, 50 μl of plasma was mixed with 50 μl of 0.1 mol/L EDTA-Na and 50 μl of 30% H2O2 at 50°C in a shaking water bath for 2 h for bleaching. The obtained transparent liquid was mixed with 10 ml of Ultima Gold™ scintillation fluid and was analyzed directly using a Packard Tri-Carb 2900 TR liquid scintillation counter (PerkinElmer Life and Analytical Sciences, Waltham, MA, USA). The scintillation counter data were automatically corrected for counting efficiency using an instrument-stored quench curve that was drawn with a series of sealed quenched ^14C standards. All the samples were analyzed in duplicate and the actual radioactivity of each sample was calculated by subtracting the […].
(§5) A 500 μl plasma sample was adjusted to pH 2.8–3.2 with 1 ml of 1 M hydrochloric acid (HCl), and a […] aliquot of the mixture was placed in a MCX cartridge preconditioned with 3 ml of methanol followed by 3 ml of 0.1 mol/L HCl water. The cartridge was washed with 3 ml of 0.1 mol/L HCl water and then eluted with 5 ml NH4OH/methanol (8:92, v:v). The effluent was concentrated to dryness under a stream of nitrogen at 40°C. The residue was reconstituted in 250 μl of methanol-water (1:9, v:v) before injection onto the LC-v.ARC/MS-IT-TOF system for metabolite identification and quantitation.
(§6) Measurement of total radioactivity in each sample was conducted using a Packard Tri-Carb 2900 TR liquid scintillation counter. The detection time was 10 min for two cycles.

[3] = Plasma pharmacokinetics of DVD and its metabolites in pigs after a single oral dose of ^3H-DVD (radioactive tracing, LC-v.ARC/MS-IT-TOF); settings: for Concentration in plasma: pigs
From the text: as §1, §2, §3, §4, §5, §6

[4] = chicken plasma, oral ^3H-DVD 10 mg/kg BW
[5] = single oral ^3H-DVD 10 mg/kg BW, 1 h
[6] = single oral ^3H-DVD 10 mg/kg BW, 1.5 h
[7] = single oral ^3H-DVD 10 mg/kg BW, 2 h
[8] = single oral ^3H-DVD 10 mg/kg BW, 4 h
[9] = single oral ^3H-DVD 10 mg/kg BW, 6 h
[10] = single oral ^3H-DVD 10 mg/kg BW, 8 h
[11] = single oral ^3H-DVD 10 mg/kg BW, 12 h
[12] = pig plasma, oral ^3H-DVD 10 mg/kg BW

For `COc1ccc(Cc2cnc(N)nc2N)cc1OC1OC(C(=O)O)C(O)C(O)C1O` (stereo not drawn) [D2, monoglucuronide of 3′-desmethyl-DVD], which “Metabolite detected in vitro” value [1] is on record?
Its value is “no D2 was found”.

And the “AUC0−∞” value [2, 4]?
The value was 1.73 ± 0.44 µg·h/mL.

What about the “ClB (total body clearance)” value [2, 4] of the same compound?
The value was 6.15 ± 1.58 L/h/kg.

And the “Cmax (maximum drug concentration)” value [2, 4]?
The value was 0.27 ± 0.08 µg/mL.

What about the “MRT0−∞” value [2, 4] of the same compound?
The value was 6.20 ± 0.18 h.

What about the MRTLast [2, 4] of the same compound?
The MRTLast was 4.66 ± 0.17 h.

What about the “Tmax (time to Cmax from time zero)” value [2, 4] of the same compound?
Its value is 2 h.

And the “Vd (apparent volume of distribution)” value [2, 4]?
The value was 32.45 ± 12.36 L/kg.

What about the “t1/2 (elimination half-life)” value ([2]; chicken plasma, oral ^3H-DVD 10 mg/kg BW, non-compartmental) of the same compound?
The value was 3.56 ± 0.44 h.

What about the “Radioactive compound detected/identified in plasma” value ([2]; chicken plasma, single oral ^3H-DVD 10 mg/kg BW) of the same compound?
Its value is “identified; also recorded: detected”.

And the Concentration in plasma [2, 5]?
Its Concentration in plasma is 0.12 ± 0.03 µg/mL.

What about the Concentration in plasma [2, 6] of the same compound?
The Concentration in plasma was 0.23 ± 0.03 µg/mL.

And the Concentration in plasma [2, 7]?
The Concentration in plasma was 0.27 ± 0.09 µg/mL.

What about the Concentration in plasma [2, 8] of the same compound?
The Concentration in plasma was 0.18 ± 0.06 µg/mL.

And the Concentration in plasma [2, 9]?
Its Concentration in plasma is 0.14 ± 0.05 µg/mL.

What about the Concentration in plasma [2, 10] of the same compound?
The Concentration in plasma was 0.09 ± 0.03 µg/mL.

What about the Concentration in plasma [2, 11] of the same compound?
Its Concentration in plasma is 0.04 ± 0.01 µg/mL.

What about the “AUC0−∞” value [3, 12] of the same compound?
Its value is 17.58 ± 2.32 µg·h/mL.

What about the “ClB (total body clearance)” value [3, 12] of the same compound?
Its value is 0.58 ± 0.08 L/h/kg.

And the “Cmax (maximum drug concentration)” value [3, 12]?
Its value is 1.38 ± 0.04 µg/mL.

And the “MRT0−∞” value [3, 12]?
Its value is 23.01 ± 1.48 h.

What about the MRTLast [3, 12] of the same compound?
The MRTLast was 14.91 ± 0.41 h.

And the “Tmax (time to Cmax from time zero)” value [3, 12]?
The value was 2 h.

And the “Vd (apparent volume of distribution)” value [3, 12]?
Its value is 15.39 ± 3.28 L/kg.

What about the “t1/2 (elimination half-life)” value ([3]; pig plasma, oral ^3H-DVD 10 mg/kg BW, non-compartmental) of the same compound?
Its value is 18.26 ± 1.70 h.

And the “Radioactive compound detected/identified in plasma” value ([3]; pig plasma, single oral ^3H-DVD 10 mg/kg BW)?
The value was “identified; also recorded: detected”.

And the Concentration in plasma ([3]; single oral ^3H-DVD 10 mg/kg BW, 0.17 h, ND = below the LOQ)?
Its Concentration in plasma is 0.10 ± 0.03 µg/mL.

And the Concentration in plasma ([3]; single oral ^3H-DVD 10 mg/kg BW, 0.33 h, ND = below the LOQ)?
Its Concentration in plasma is 0.26 ± 0.11 µg/mL.

And the Concentration in plasma ([3]; single oral ^3H-DVD 10 mg/kg BW, 0.5 h, ND = below the LOQ)?
Its Concentration in plasma is 0.52 ± 0.15 µg/mL.

What about the Concentration in plasma ([3]; single oral ^3H-DVD 10 mg/kg BW, 0.67 h) of the same compound?
Its Concentration in plasma is 0.61 ± 0.19 µg/mL.

And the Concentration in plasma [3, 5]?
The Concentration in plasma was 0.69 ± 0.20 µg/mL.

What about the Concentration in plasma [3, 6] of the same compound?
The Concentration in plasma was 1.23 ± 0.04 µg/mL.

And the Concentration in plasma [3, 7]?
Its Concentration in plasma is 1.38 ± 0.04 µg/mL.

And the Concentration in plasma [3, 8]?
Its Concentration in plasma is 0.66 ± 0.05 µg/mL.

What about the Concentration in plasma [3, 9] of the same compound?
Its Concentration in plasma is 0.50 ± 0.08 µg/mL.

What about the Concentration in plasma [3, 10] of the same compound?
Its Concentration in plasma is 0.41 ± 0.07 µg/mL.

What about the Concentration in plasma [3, 11] of the same compound?
The Concentration in plasma was 0.35 ± 0.06 µg/mL.

And the Concentration in plasma ([3]; single oral ^3H-DVD 10 mg/kg BW, 24 h)?
Its Concentration in plasma is 0.27 ± 0.08 µg/mL.

What about the Concentration in plasma ([3]; single oral ^3H-DVD 10 mg/kg BW, 48 h) of the same compound?
Its Concentration in plasma is 0.09 ± 0.01 µg/mL.
